# Data as given in DBAASP.
# Legend:
# Experiment in all cases: ≥ marks a high value that may be exact or a test limit, other limits are often not marked, values filed in µg/mL are converted to µM
# [1] = tested on: Escherichia coli ATCC 25922
# [2] = tested on: Staphylococcus aureus ATCC 29213
# Staphylococcus aureus = tested on: Staphylococcus aureus
# Bacillus subtilis = tested on: Bacillus subtilis
# Escherichia coli = tested on: Escherichia coli
# Pseudomonas aeruginosa = tested on: Pseudomonas aeruginosa
# [3] = tested on: Candida albicans ATCC 90028
# [4] = tested on: Pseudomonas aeruginosa ATCC 27853
# [5] = tested on: Candida albicans ATCC 2002
# [6] = tested on: Staphylococcus aureus ATCC 25923
SMILES,MIC [1],MIC [2],MIC (Bacillus subtilis),MIC (Escherichia coli),also measured
CC[C@H](C)[C@H](NC(=O)[C@H](Cc1ccccc1)NC(=O)[C@@H]1CCCN1C(=O)[C@H](CC(C)C)NC(=O)[C@@H](N)Cc1ccccc1)C(=O)N[C@@H](C)C(=O)N[C@@H](CCCN=C(N)N)C(=O)N[C@@H](CC(C)C)C(=O)N[C@@H](C)C(=O)N[C@@H](C)C(=O)N[C@@H](CCCCN)C(=O)N[C@H](C(=O)N[C@@H](Cc1ccccc1)C(=O)N1CCC[C@H]1C(=O)N[C@@H](CO)C(=O)N[C@H](C(=O)N[C@H](C(=O)N[C@H]1CSSC[C@@H](C(=O)O)NC(=O)[C@H](CCCCN)NC(=O)[C@H](CCCCN)NC(=O)[C@H]([C@@H](C)O)NC(=O)[C@H](C(C)C)NC(=O)[C@H](CO)NC1=O)[C@@H](C)CC)[C@@H](C)CC)C(C)C [FLPFIARLAAKVFPSIICSVTKKC],1.51 µM,0.533 µM,,,MIC (Staphylococcus aureus): 55 µM
CC[C@H](C)[C@H](N)C(=O)N[C@@H](CC(N)=O)C(=O)N[C@@H](Cc1c[nH]c2ccccc12)C(=O)N[C@@H](CCCCN)C(=O)N[C@@H](CCCCN)C(=O)N[C@H](C(=O)N[C@@H](C)C(=O)N[C@@H](CO)C(=O)N[C@H](C(=O)NCC(=O)N[C@@H](CCCCN)C(=O)N[C@@H](CCC(=O)O)C(=O)N[C@H](C(=O)N[C@@H](CC(C)C)C(=O)N[C@@H](CCCCN)C(N)=O)C(C)C)[C@@H](C)CC)[C@@H](C)CC [INWKKIASIGKEVLK],,,≥ 100 µM,100 µM,
CC[C@H](C)[C@H](NC(=O)[C@H](C)NC(=O)[C@H](CCCCN)NC(=O)[C@H](C)NC(=O)[C@@H](NC(=O)[C@H](CO)NC(=O)[C@H](CCCCN)NC(=O)[C@@H](NC(=O)[C@H](Cc1c[nH]c2ccccc12)NC(=O)[C@H](CCCCN)NC(=O)[C@H](CC(C)C)NC(=O)[C@@H](NC(=O)[C@H](CO)NC(=O)[C@H](CCCCN)NC(=O)[C@H](C)NC(=O)[C@@H](NC(=O)[C@H](C)NC(=O)[C@@H](N)CCCCN)[C@@H](C)CC)[C@@H](C)CC)[C@@H](C)CC)[C@@H](C)CC)C(N)=O [KAIAKSILKWIKSIAKAI],,,,5.6 µM,MIC (Pseudomonas aeruginosa): 11.2 µM; MIC (Staphylococcus aureus): 1.4 µM
CC(C)C[C@H](NC(=O)CNC(=O)[C@H](C)NC(=O)[C@H](CCCCN)NC(=O)[C@H](CC(C)C)NC(=O)[C@H](CCCCN)NC(=O)[C@H](C)NC(=O)[C@H](CC(C)C)NC(=O)CNC(=O)[C@H](C)NC(=O)[C@H](CCCCN)NC(=O)[C@H](Cc1c[nH]c2ccccc12)NC(=O)[C@H](CCCCN)NC(=O)[C@H](C)NC(=O)[C@H](CC(C)C)NC(=O)CNC(=O)[C@H](C)NC(=O)[C@H](CCCCN)NC(=O)[C@H](CC(C)C)NC(=O)[C@@H](N)CCCCN)C(=O)N[C@@H](C)C(N)=O [KLKAGLAKWKAGLAKLKAGLA],,,,15 µM,MIC (Pseudomonas aeruginosa): > 120 µM; MIC (Staphylococcus aureus): 120 µM
CC[C@H](C)[C@H](NC(=O)[C@H](CCCN=C(N)N)NC(=O)[C@@H](N)CCCCN)C(=O)N[C@@H](C)C(=O)N[C@@H](CCC(N)=O)C(=O)N[C@@H](CCCN=C(N)N)C(=O)N[C@H](C(=O)N[C@@H](CCCCN)C(=O)N[C@@H](CC(=O)O)C(=O)N[C@@H](Cc1ccccc1)C(=O)N[C@@H](CC(C)C)C(=O)N[C@@H](CCCN=C(N)N)C(=O)O)[C@@H](C)CC [KRIAQRIKDFLR],3.24 µM,20 µM,,,MIC [3]: ≥ 40 µM; MIC [4]: 10 µM
CC[C@H](C)[C@H](NC(=O)[C@H](CCCN=C(N)N)NC(=O)[C@H](CCC(N)=O)NC(=O)[C@H](CCCCN)NC(=O)[C@@H](NC(=O)[C@H](CCCN=C(N)N)NC(=O)[C@@H](N)CCCCN)[C@@H](C)CC)C(=O)N[C@@H](CCCCN)C(=O)N[C@@H](CC(=O)O)C(=O)N[C@@H](Cc1ccccc1)C(=O)N[C@@H](CC(C)C)C(=O)N[C@@H](CCCN=C(N)N)C(=O)O [KRIKQRIKDFLR],2.5 µM,20 µM,,,MIC [3]: 20 µM; MIC [4]: 5 µM
CC(=O)N[C@@H](CC(C)C)C(=O)N[C@@H](CCCCN)C(=O)N[C@@H](CCCCN)C(=O)N[C@@H](CC(C)C)C(=O)N1CCC[C@H]1C(=O)N[C@@H](CCCCN)C(=O)N[C@@H](CC(C)C)C(=O)N[C@@H](CO)C(=O)N[C@@H](CCCCN)C(=O)N[C@@H](CCCCN)C(=O)N[C@@H](CC(C)C)C(=O)N[C@@H](CC(C)C)C(=O)N[C@@H](CCCCN)C(=O)N[C@@H](CC(C)C)C(N)=O [LKKLPKLSKKLLKL],3.54 µM,14.1 µM,,,
CC[C@H](C)[C@H](NC(=O)[C@@H](NC(=O)[C@H](C)NC(=O)[C@H](CCCN=C(N)N)NC(=O)[C@H](CC(N)=O)NC(=O)[C@H](Cc1ccccc1)NC(=O)[C@H](CO)NC(=O)[C@@H](NC(=O)[C@H](CCCN=C(N)N)NC(=O)[C@H](CCCN=C(N)N)NC(=O)[C@H](CCCN=C(N)N)NC(=O)[C@H](CC(C)C)NC(=O)[C@H](CCC(=O)O)NC(=O)[C@H](CC(N)=O)NC(=O)[C@H](CCC(=O)O)NC(=O)[C@H](CCC(=O)O)NC(=O)[C@H](CC(N)=O)NC(=O)[C@@H](N)CC(N)=O)C(C)C)C(C)C)C(=O)N[C@@H](Cc1cnc[nH]1)C(=O)N[C@@H](CO)C(=O)N[C@@H](CC(C)C)C(=O)N[C@@H](CC(C)C)C(=O)NCC(N)=O [NNEENELRRRVSFNRAVIHSLLG],> 257 µM,> 257 µM,,,
CC[C@H](C)[C@H](NC(=O)[C@H](CO)NC(=O)[C@H](C)NC(=O)[C@@H](NC(=O)[C@H](CCCCN)NC(=O)[C@H](CCCCN)NC(=O)[C@H](Cc1c[nH]c2ccccc12)NC(=O)[C@@H](N)CC(N)=O)[C@@H](C)CC)C(=O)NCC(=O)N[C@@H](CCCCN)C(=O)N[C@@H](CCC(=O)O)C(=O)N[C@H](C(=O)N[C@@H](CC(C)C)C(=O)N[C@@H](CCCCN)C(=O)N[C@@H](C)C(=O)N[C@@H](CC(C)C)C(N)=O)C(C)C [NWKKIASIGKEVLKAL],,,≥ 46 µM,21 µM,

# The next lines start with results.
MIC [1],MIC [2],MIC (Bacillus subtilis),MIC (Escherichia coli),SMILES,also measured
20 µM,> 40 µM,,,CC[C@H](C)[C@H](NC(=O)[C@H](CCCN=C(N)N)NC(=O)[C@H](CCC(N)=O)NC(=O)[C@@H](NC(=O)[C@H](CC(N)=O)NC(=O)[C@H](CCCN=C(N)N)NC(=O)[C@H](CCCCN)NC(=O)[C@@H](N)Cc1ccccc1)C(C)C)C(=O)N[C@@H](CCCCN)C(=O)N[C@@H](CC(=O)O)C(=O)N[C@@H](Cc1ccccc1)C(=O)N[C@@H](CC(C)C)C(=O)N[C@@H](CCCN=C(N)N)C(=O)O [FKRNVQRIKDFLR],
,,10 µM,10 µM,CC[C@H](C)[C@H](N)C(=O)N[C@@H](CC(N)=O)C(=O)N[C@@H](Cc1c[nH]c2ccccc12)C(=O)N[C@@H](CCCCN)C(=O)N[C@@H](CCCCN)C(=O)N[C@H](C(=O)N[C@@H](Cc1ccccc1)C(=O)N[C@@H](CCC(=O)O)C(=O)N[C@@H](CO)C(=O)N[C@H](C(=O)N[C@@H](CCCCN)C(=O)N[C@@H](CC(N)=O)C(=O)N[C@@H](CC(C)C)C(=O)N[C@H](C(N)=O)C(C)C)C(C)C)[C@@H](C)CC [INWKKIFESVKNLV],
,,15 µM,15 µM,CC[C@H](C)[C@H](N)C(=O)N[C@@H](CC(N)=O)C(=O)N[C@@H](Cc1c[nH]c2ccccc12)C(=O)N[C@@H](CCCCN)C(=O)N[C@@H](CO)C(=O)N[C@H](C(=O)N[C@@H](Cc1ccccc1)C(=O)N[C@@H](CCC(=O)O)C(=O)N[C@@H](CCCCN)C(=O)N[C@H](C(=O)N[C@@H](CCCCN)C(=O)N[C@@H](CC(N)=O)C(=O)N[C@@H](CC(C)C)C(=O)N[C@H](C(N)=O)C(C)C)C(C)C)[C@@H](C)CC [INWKSIFEKVKNLV],
,,17.5 µM,> 100 µM,CC[C@H](C)[C@H](N)C(=O)N[C@@H](CC(N)=O)C(=O)N[C@@H](Cc1c[nH]c2ccccc12)C(=O)N[C@@H](CC(C)C)C(=O)N[C@@H](CCCN=C(N)N)C(=O)N[C@@H](CC(C)C)C(=O)NCC(=O)N[C@@H](CCCN=C(N)N)C(=O)N[C@@H](CCCN=C(N)N)C(=O)N[C@H](C(=O)N[C@@H](CC(C)C)C(=O)NCC(=O)N[C@@H](C)C(=O)N[C@@H](CC(C)C)C(N)=O)[C@@H](C)CC [INWLRLGRRILGAL],
1.15 µM,,1.54 µM,,CC[C@H](C)[C@H](NC(=O)[C@H](C)NC(=O)[C@H](CCCN=C(N)N)NC(=O)[C@H](Cc1ccc(O)cc1)NC(=O)[C@H](CC(C)C)NC(=O)[C@H](CC(N)=O)NC(=O)[C@H](Cc1ccc(O)cc1)NC(=O)CNC(=O)[C@H](C)NC(=O)[C@@H](NC(=O)[C@@H](NC(=O)[C@@H](NC(=O)[C@H](CCCN=C(N)N)NC(=O)[C@@H](NC(=O)[C@@H](NC(=O)[C@@H](NC(=O)[C@@H]1CCCN1C(=O)[C@H](Cc1c[nH]c2ccccc12)NC(=O)[C@H](Cc1ccccc1)NC(=O)[C@H](CCCN=C(N)N)NC(=O)[C@H](CCCCN)NC(=O)[C@@H](NC(=O)[C@@H](N)CCCN=C(N)N)[C@@H](C)CC)C(C)C)C(C)C)[C@@H](C)CC)[C@@H](C)O)C(C)C)C(C)C)C(=O)N[C@@H](CCCCN)C(=O)N[C@@H](CCCCN)C(=O)O [RIKRFWPVVIRTVVAGYNLYRAIKK],MIC [5]: 0.769 µM; MIC [6]: 3.08 µM
61.2 µM,,,,CC[C@H](C)[C@H](NC(=O)[C@@H](NC(=O)[C@@H](NC(=O)[C@@H]1CCCN1C(=O)[C@H](Cc1c[nH]c2ccccc12)NC(=O)[C@H](Cc1ccccc1)NC(=O)[C@H](CCCN=C(N)N)NC(=O)[C@H](CCCCN)NC(=O)[C@@H](NC(=O)[C@@H](N)CCCN=C(N)N)[C@@H](C)CC)C(C)C)C(C)C)C(=O)N[C@@H](CCCN=C(N)N)C(=O)N[C@H](C(=O)N[C@H](C(=O)N[C@H](C(=O)N[C@@H](C)C(=O)NCC(=O)N[C@@H](Cc1ccc(O)cc1)C(=O)N[C@@H](CC(N)=O)C(=O)N[C@@H](CC(C)C)C(=O)N[C@@H](Cc1ccc(O)cc1)C(=O)O)C(C)C)C(C)C)[C@@H](C)O [RIKRFWPVVIRTVVAGYNLY],MIC [5]: ≥ 45.9 µM
